Data as given in ChEMBL document CHEMBL1671859, “bla(IMP-4) in different genetic contexts in Enterobacteriaceae isolates from Australia” (2008).
In brackets after ≈: the same amount, converted by molar mass.

How the values were obtained:
Type in all cases: functional
Klebsiella pneumoniae [1] = test: Antibacterial activity against Klebsiella pneumoniae isolate Kp3799 harboring IncL/M plasmid and blaIMP-4-qacG2-aacA4-catB3 array by Etest method
Serratia marcescens [2] = test: Antibacterial activity against Serratia marcescens isolate Sm265 harboring IncA/C plasmid and blaIMP-4-qacG2-aacA4-catB3 array by Etest method
Serratia marcescens [3] = test: Antibacterial activity against Serratia marcescens isolate Sm211 harboring IncA/C plasmid and blaIMP-4-qacG2-aacA4-catB3 array by Etest method
Klebsiella pneumoniae [4] = test: Antibacterial activity against Klebsiella pneumoniae isolate Kp211 harboring IncA/C plasmid and blaIMP-4-qacG2-aacA4-catB3 array by Etest method
Klebsiella oxytoca [5] = test: Antibacterial activity against Klebsiella oxytoca isolate Ko238 harboring IncA/C plasmid and blaIMP-4-qacG2-aacA4-catB3 array by Etest method
Morganella morganii [6] = test: Antibacterial activity against Morganella morganii isolate Mm1229 harboring IncL/M plasmid and blaIMP-4-qacG2-aacA4-catB3 array by Etest method
Klebsiella pneumoniae [7] = test: Antibacterial activity against Klebsiella pneumoniae isolate Kp4614
Escherichia coli [8] = test: Antibacterial activity against Escherichia coli isolate Ec221 harboring IncA/C plasmid and blaIMP-4-qacG2-aacA4-catB3 array by Etest method
Serratia marcescens [9] = test: Antibacterial activity against Serratia marcescens isolate Sm201 harboring IncA/C plasmid and blaIMP-4-qacG2-aacA4-catB3 array by Etest method
Serratia marcescens [10] = test: Antibacterial activity against Serratia marcescens isolate Sm220 harboring IncA/C plasmid and blaIMP-4-qacG2-aacA4-catB3 array by Etest method
Citrobacter amalonaticus [11] = test: Antibacterial activity against Citrobacter amalonaticus isolate Ca1614 harboring IncL/M plasmid and blaIMP-4-qacG2-aacA4-catB3 array by Etest method
Klebsiella pneumoniae [12] = test: Antibacterial activity against Klebsiella pneumoniae isolate Kp1945 harboring IncL/M plasmid and blaIMP-4-qacG2-aacA4-catB3 and dfrA12-orfF-aadA2 arrays by Etest method
Morganella morganii [13] = test: Antibacterial activity against Morganella morganii isolate Mm38009 harboring IncL/M plasmid and blaIMP-4-qacG2-aacA4-catB3 array by Etest method
Klebsiella pneumoniae [14] = test: Antibacterial activity against Klebsiella pneumoniae isolate Kp149 harboring IncA/C plasmid and blaIMP-4-qacG2-aacA4-catB3 array by Etest method
Escherichia coli [15] = test: Antibacterial activity against Escherichia coli isolate Ec9381 harboring IncL/M plasmid and blaIMP-4-qacG2-aacA4-catB3 array by Etest method
Acinetobacter baumannii = test: Antibacterial activity against Acinetobacter baumannii isolate AbN450 harboring […]-qacG2-aacA4-catB3 array by Etest method
Citrobacter koseri = test: Antibacterial activity against Citrobacter koseri isolate Ck211 harboring IncA/C plasmid and blaIMP-4-qacG2-aacA4-catB3 array by Etest method
Citrobacter amalonaticus [16] = test: Antibacterial activity against Citrobacter amalonaticus isolate Ca38009 harboring IncL/M plasmid and blaIMP-4-qacG2-aacA4-catB3 array by Etest method
Escherichia coli [17] = test: Antibacterial activity against Escherichia coli isolate Ec158 harboring IncA/C plasmid and blaIMP-4-qacG2-aacA4-catB3 array by Etest method
Citrobacter youngae = test: Antibacterial activity against Citrobacter youngae isolate CyB38 harboring blaIMP-4-qacG2-aacA4-catB3 array by Etest method
Klebsiella pneumoniae [18] = test: Antibacterial activity against Klebsiella pneumoniae isolate Kp38009 harboring IncL/M plasmid and blaIMP-4-qacG2-aacA4-catB3 array by Etest method
Klebsiella pneumoniae [19] = test: Antibacterial activity against Klebsiella pneumoniae isolate Kp266 harboring IncA/C plasmid and blaIMP-4-qacG2-aacA4-catB3 array by Etest method
Serratia marcescens [20] = test: Antibacterial activity against Serratia marcescens isolate Sm2723 harboring IncL/M plasmid and blaIMP-4-qacG2-aacA4-catB3 array by Etest method
Citrobacter freundii = test: Antibacterial activity against Citrobacter freundii isolate Cf1614 harboring IncL/M plasmid and blaIMP-4-qacG2-aacA4-catB3 array by Etest method
Klebsiella oxytoca [21] = test: Antibacterial activity against Klebsiella oxytoca isolate Ko0426 harboring IncL/M plasmid and blaIMP-4-qacG2-aacA4-catB3 array by Etest method
Klebsiella pneumoniae [22] = test: Antibacterial activity against Klebsiella pneumoniae isolate Kp1239 harboring IncL/M plasmid and blaIMP-4-qacG2-aacA4-catB3 array by Etest method
Klebsiella pneumoniae [23] = test: Antibacterial activity against Klebsiella pneumoniae isolate Kp2730 harboring IncL/M plasmid and blaIMP-4-qacG2-aacA4-catB3 and dfrA12-orfF-aadA2 arrays by Etest method
Klebsiella oxytoca [24] = test: Antibacterial activity against Klebsiella oxytoca isolate Ko1156 harboring IncL/M plasmid and blaIMP-4-qacG2-aacA4-catB3 array by Etest method
Serratia marcescens [25] = test: Antibacterial activity against Serratia marcescens isolate Sm203 harboring IncA/C plasmid and blaIMP-4-qacG2-aacA4-catB3 array by Etest method
Acinetobacter = test: Antibacterial activity against Acinetobacter isolate A74510 harboring blaIMP-4-qacG2-aacA4-catB3 array by Etest method
Klebsiella pneumoniae [26] = test: Antibacterial activity against Klebsiella pneumoniae isolate Kp204 harboring IncA/C plasmid and blaIMP-4-qacG2-aacA4-catB3 array by Etest method
Escherichia coli [27] = test: Antibacterial activity against Escherichia coli isolate Ec211 harboring IncA/C plasmid and blaIMP-4-qacG2-aacA4-catB3 array by Etest method
Citrobacter amalonaticus [28] = test: Antibacterial activity against Citrobacter amalonaticus isolate Ca3927 harboring IncL/M plasmid and blaIMP-4-qacG2-aacA4-catB3 array by Etest method
Klebsiella pneumoniae [29] = test: Antibacterial activity against Klebsiella pneumoniae isolate Kp7564 harboring IncL/M plasmid and blaIMP-4-qacG2-aacA4-catB3 array by Etest method
Klebsiella pneumoniae [30] = test: Antibacterial activity against Klebsiella pneumoniae isolate Kp38045 harboring IncL/M plasmid and blaIMP-4-qacG2-aacA4-catB3 array by Etest method
Morganella morganii [31] = test: Antibacterial activity against Morganella morganii isolate Mm1614 harboring IncL/M plasmid and blaIMP-4-qacG2-aacA4-catB3 array by Etest method

| Structure (SMILES) | MIC (Serratia marcescens [2]) [µg/mL] | MIC (Serratia marcescens [3]) [µg/mL] | MIC (Klebsiella oxytoca [5]) [µg/mL] | MIC (Morganella morganii [6]) [µg/mL] | MIC (Escherichia coli [8]) [µg/mL] | MIC (Serratia marcescens [9]) [µg/mL] | MIC (Serratia marcescens [10]) [µg/mL] | MIC (Citrobacter amalonaticus [11]) [µg/mL] | MIC (Morganella morganii [13]) [µg/mL] | MIC (Escherichia coli [15]) [µg/mL] | MIC (Acinetobacter baumannii) [µg/mL] | MIC (Citrobacter koseri) [µg/mL] | MIC (Citrobacter amalonaticus [16]) [µg/mL] | MIC (Escherichia coli [17]) [µg/mL] | MIC (Citrobacter youngae) [µg/mL] | MIC (Serratia marcescens [20]) [µg/mL] | MIC (Citrobacter freundii) [µg/mL] | MIC (Klebsiella oxytoca [21]) [µg/mL] | MIC (Klebsiella oxytoca [24]) [µg/mL] | MIC (Serratia marcescens [25]) [µg/mL] | also measured |
| --- | --- | --- | --- | --- | --- | --- | --- | --- | --- | --- | --- | --- | --- | --- | --- | --- | --- | --- | --- | --- | --- |
| C[C@H]1[C@H](NC(=O)/C(=N\OC(C)(C)C(=O)O)c2csc(N)n2)C(=O)N1S(=O)(=O)O [AZTREONAM] | ≤ 1 | ≤ 1 | ≤ 1 | ≤ 1 | ≤ 1 | ≤ 1 | ≤ 1 | > 16 | ≤ 1 | ≤ 1 | > 16 | ≤ 1 | ≤ 1 | ≤ 1 | ≤ 1 | ≤ 1 | > 16 | ≤ 1 | ≤ 1 | ≤ 1 | MIC (Klebsiella pneumoniae [1]): ≤ 1 µg/mL; MIC (Klebsiella pneumoniae [4]): ≤ 1 µg/mL; MIC (Klebsiella pneumoniae [7]): ≤ 1 µg/mL; MIC (Klebsiella pneumoniae [12]): ≤ 1 µg/mL; MIC (Klebsiella pneumoniae [14]): > 16 µg/mL; MIC (Klebsiella pneumoniae [18]): ≤ 1 µg/mL; MIC (Klebsiella pneumoniae [19]): ≤ 1 µg/mL; MIC (Klebsiella pneumoniae [22]): ≤ 1 µg/mL; MIC (Klebsiella pneumoniae [23]): ≤ 1 µg/mL; MIC (Acinetobacter): > 16 µg/mL; MIC (Klebsiella pneumoniae [26]): ≤ 1 µg/mL; MIC (Escherichia coli [27]): ≤ 1 µg/mL; MIC (Citrobacter amalonaticus [28]): > 16 µg/mL; MIC (Klebsiella pneumoniae [29]): ≤ 1 µg/mL; MIC (Klebsiella pneumoniae [30]): ≤ 1 µg/mL; MIC (Morganella morganii [31]): 4 µg/mL (≈ 9.19 µM) |
| O=C(O)c1cn(C2CC2)c2cc(N3CCNCC3)c(F)cc2c1=O [CIPROFLOXACIN] | ≤ 0.5 | 2 (≈ 6.04 µM) | ≤ 0.5 | ≤ 0.5 | ≤ 0.5 | > 2 | 2 (≈ 6.04 µM) | ≤ 0.5 | ≤ 0.5 | ≤ 0.5 | > 2 | ≤ 0.5 | ≤ 0.5 | ≤ 0.5 | > 2 | > 2 | ≤ 0.5 | ≤ 0.5 | ≤ 0.5 | 2 (≈ 6.04 µM) | MIC (Acinetobacter): > 2 µg/mL; MIC (Escherichia coli [27]): ≤ 0.5 µg/mL; MIC (Citrobacter amalonaticus [28]): ≤ 0.5 µg/mL; MIC (Morganella morganii [31]): ≤ 0.5 µg/mL |
